These results are taken from BindingDB's records for doi:10.1016/j.bmcl.2009.07.032 (Amgen, 2009).

By IC50 is commonly meant the concentration at which inhibition is half-maximal.

A short description of the first experiment: Antagonist activity against human CXCR3 expressed in human PBMC assessed as inhibition of cell migration in response to MIG in buffer.
`CCS(=O)(=O)CCN(C(=O)Cc1ccc(F)c(C(F)(F)F)c1)[C@H](C)c1nc2ncccc2c(=O)n1-c1ccc(OCC(F)(F)F)cc1` [(R)-N-(2-(ethylsulfonyl)ethyl)-2-(4-fluoro-3-(trifluoromethyl)phenyl)-N-(1-(4-oxo-3-(4-(2,2,2-trifluoroethoxy)phenyl)-3,4-dihydropyrido[2,3-d]pyrimidin-2-yl)ethyl)acetamide]: the IC50 stood at 0.0006 µM.

A short description of a further experiment: Antagonist activity against human CXCR3 expressed in human PBMC assessed as inhibition of cell migration in response to ITAC in RPMI buffer.
Regarding `CCS(=O)(=O)CCN(C(=O)Cc1ccc(F)c(C(F)(F)F)c1)[C@H](C)c1nc2ncccc2c(=O)n1-c1ccc(OCC(F)(F)F)cc1` [(R)-N-(2-(ethylsulfonyl)ethyl)-2-(4-fluoro-3-(trifluoromethyl)phenyl)-N-(1-(4-oxo-3-(4-(2,2,2-trifluoroethoxy)phenyl)-3,4-dihydropyrido[2,3-d]pyrimidin-2-yl)ethyl)acetamide], the IC50 is 0.0008 µM.

The next experiment is described as follows: Antagonist activity against human CXCR3 expressed in human PBMC assessed as inhibition of cell migration in response to IP10 in buffer.
For the molecule `CCS(=O)(=O)CCN(C(=O)Cc1ccc(F)c(C(F)(F)F)c1)[C@H](C)c1nc2ncccc2c(=O)n1-c1ccc(OCC(F)(F)F)cc1` [(R)-N-(2-(ethylsulfonyl)ethyl)-2-(4-fluoro-3-(trifluoromethyl)phenyl)-N-(1-(4-oxo-3-(4-(2,2,2-trifluoroethoxy)phenyl)-3,4-dihydropyrido[2,3-d]pyrimidin-2-yl)ethyl)acetamide], the IC50 stood at 0.0004 µM.

A short description of another experiment: Antagonist activity against human CXCR3 expressed in human PBMC assessed as inhibition of cell migration in response to ITAC in plasma.
Turning to `CCOc1ccc(-n2c([C@@H](C)N(Cc3cccnc3)C(=O)Cc3cc(C(F)(F)F)cc(C(F)(F)F)c3)nc3ccccc3c2=O)cc1` [(R)-2-(3,5-bis(trifluoromethyl)phenyl)-N-(1-(3-(4-ethoxyphenyl)-4-oxo-3,4-dihydroquinazolin-2-yl)ethyl)-N-(pyridin-3-ylmethyl)acetamide], the IC50 came out at 0.017 µM. In the case of `CCOc1ccc(-n2c([C@@H](C)N(Cc3ccc[n+]([O-])c3)C(=O)Cc3ccc(OC(F)(F)F)cc3)nc3ncccc3c2=O)cc1` [(R)-3-((N-(1-(3-(4-ethoxyphenyl)-4-oxo-3,4-dihydropyrido[2,3-d]pyrimidin-2-yl)ethyl)-2-(4-(trifluoromethoxy)phenyl)acetamido)methyl)pyridine 1-oxide], the IC50 worked out at 0.058 µM. As to `CCOc1ccc(-n2c([C@@H](C)N(C(=O)Cc3ccc(F)c(C(F)(F)F)c3)C3CCN(C(C)C)CC3)nc3ncccc3c2=O)cc1` [(R)-N-(1-(3-(4-ethoxyphenyl)-4-oxo-3,4-dihydropyrido[2,3-d]pyrimidin-2-yl)ethyl)-2-(4-fluoro-3-(trifluoromethyl)phenyl)-N-(1-isopropylpiperidin-4-yl)acetamide], the IC50 was 0.005 µM. `CCOc1ccc(-n2c([C@@H](C)N(CC3CCN(C)CC3)C(=O)Cc3ccc(F)c(C(F)(F)F)c3)nc3ncccc3c2=O)cc1` [(R)-N-(1-(3-(4-ethoxyphenyl)-4-oxo-3,4-dihydropyrido[2,3-d]pyrimidin-2-yl)ethyl)-2-(4-fluoro-3-(trifluoromethyl)phenyl)-N-((1-methylpiperidin-4-yl)methyl)acetamide]: the IC50 was determined as 0.02 µM. The same measure, in the same setting: the result for `CCOc1ccc(-n2c([C@@H](C)N(Cc3cc(C)no3)C(=O)Cc3ccc(F)c(C(F)(F)F)c3)nc3ncccc3c2=O)cc1` [(R)-N-(1-(3-(4-ethoxyphenyl)-4-oxo-3,4-dihydropyrido[2,3-d]pyrimidin-2-yl)ethyl)-2-(4-fluoro-3-(trifluoromethyl)phenyl)-N-((3-methylisoxazol-5-yl)methyl)acetamide] reads 0.059 µM; that for `CCOc1ccc(-n2c([C@@H](C)N(Cc3cccnc3)C(=O)Cc3ccc(F)c(C(F)(F)F)c3)nc3ncccc3c2=O)cc1` [(R)-N-(1-(3-(4-ethoxyphenyl)-4-oxo-3,4-dihydropyrido[2,3-d]pyrimidin-2-yl)ethyl)-2-(4-fluoro-3-(trifluoromethyl)phenyl)-N-(pyridin-3-ylmethyl)acetamide], 0.02 µM; that for `CCOc1ccc(-n2c([C@@H](C)N(C(=O)Cc3ccc(F)c(C(F)(F)F)c3)C3CCOCC3)nc3ncccc3c2=O)cc1` [(R)-N-(1-(3-(4-ethoxyphenyl)-4-oxo-3,4-dihydropyrido[2,3-d]pyrimidin-2-yl)ethyl)-2-(4-fluoro-3-(trifluoromethyl)phenyl)-N-(tetrahydro-2H-pyran-4-yl)acetamide], 0.162 µM. Still for that read-out and setting: the result for `CCOc1ccc(-n2c([C@@H](C)N(CCS(=O)(=O)CC)C(=O)Cc3ccc(F)c(C(F)(F)F)c3)nc3ncccc3c2=O)cc1` [(R)-N-(1-(3-(4-ethoxyphenyl)-4-oxo-3,4-dihydropyrido[2,3-d]pyrimidin-2-yl)ethyl)-N-(2-(ethylsulfonyl)ethyl)-2-(4-fluoro-3-(trifluoromethyl)phenyl)acetamide] reads 0.022 µM; that for `CCOc1ccc(-n2c([C@@H](C)N(Cc3cccnc3)C(=O)Cc3ccc(F)c(C(F)(F)F)c3)nc3cnccc3c2=O)cc1` [(R)-N-(1-(3-(4-ethoxyphenyl)-4-oxo-3,4-dihydropyrido[3,4-d]pyrimidin-2-yl)ethyl)-2-(4-fluoro-3-(trifluoromethyl)phenyl)-N-(pyridin-3-ylmethyl)acetamide], 0.023 µM; that for `CCOc1ccc(-n2c([C@@H](C)N(Cc3cccnc3)C(=O)Cn3cnc(C(F)(F)F)c3)nc3ccccc3c2=O)cc1` [(R)-N-(1-(3-(4-ethoxyphenyl)-4-oxo-3,4-dihydroquinazolin-2-yl)ethyl)-N-(pyridin-3-ylmethyl)-2-(4-(trifluoromethyl)-1H-imidazol-1-yl)acetamide], 0.45 µM.

`CCOc1ccc(-n2c([C@@H](C)N(C(=O)Cc3ccc(F)c(C(F)(F)F)c3)C3CCN(C(C)=O)CC3)nc3ncccc3c2=O)cc1` [(R)-N-(1-acetylpiperidin-4-yl)-N-(1-(3-(4-ethoxyphenyl)-4-oxo-3,4-dihydropyrido[2,3-d]pyrimidin-2-yl)ethyl)-2-(4-fluoro-3-(trifluoromethyl)phenyl)acetamide]: the IC50 stood at 0.131 µM. Consider `CCS(=O)(=O)CCN(C(=O)Cc1ccc(F)c(C(F)(F)F)c1)[C@H](C)c1nc2ncccc2c(=O)n1-c1ccc(OCC(F)(F)F)cc1` [(R)-N-(2-(ethylsulfonyl)ethyl)-2-(4-fluoro-3-(trifluoromethyl)phenyl)-N-(1-(4-oxo-3-(4-(2,2,2-trifluoroethoxy)phenyl)-3,4-dihydropyrido[2,3-d]pyrimidin-2-yl)ethyl)acetamide], for which the half-inhibitory concentration (IC50) turned out to be 0.015 µM.

Consider `CCOc1ccc(-n2c([C@@H](C)N(C[C@H]3CCCN3C(C)C)C(=O)Cc3ccc(F)c(C(F)(F)F)c3)nc3ncccc3c2=O)cc1` [N-((R)-1-(3-(4-ethoxyphenyl)-4-oxo-3,4-dihydropyrido[2,3-d]pyrimidin-2-yl)ethyl)-2-(4-fluoro-3-(trifluoromethyl)phenyl)-N-(((R)-1-isopropylpyrrolidin-2-yl)methyl)acetamide], for which the IC50 is 0.01 µM. The same measure, in the same setting: the result for `CCOc1ccc(-n2c([C@@H](C)N(C[C@@H]3CCCN3C(C)C)C(=O)Cc3ccc(F)c(C(F)(F)F)c3)nc3ncccc3c2=O)cc1` [N-((R)-1-(3-(4-ethoxyphenyl)-4-oxo-3,4-dihydropyrido[2,3-d]pyrimidin-2-yl)ethyl)-2-(4-fluoro-3-(trifluoromethyl)phenyl)-N-(((S)-1-isopropylpyrrolidin-2-yl)methyl)acetamide] reads 0.08 µM; that for `CCOc1ccc(-n2c([C@@H](C)N(C[C@H]3CCCN3)C(=O)Cc3ccc(F)c(C(F)(F)F)c3)nc3ncccc3c2=O)cc1` [N-((R)-1-(3-(4-ethoxyphenyl)-4-oxo-3,4-dihydropyrido[2,3-d]pyrimidin-2-yl)ethyl)-2-(4-fluoro-3-(trifluoromethyl)phenyl)-N-((R)-pyrrolidin-2-ylmethyl)acetamide], 0.02 µM.
